Assay results published in PMC8468421, “Synthesis and Biological Evaluation of 1,2,3-Triazole Tethered Thymol-1,3,4-Oxadiazole Derivatives as Anticancer and Antimicrobial Agents” (Pharmaceuticals, 2021).
One block for each compound: values may come before it.

Key:
[1] = system: E. coli (ATCC 31218); test: Antimicrobial activity, agar well zone of inhibition, E. coli; assay type: cell-based, Escherichia coli; details: 10 μL of 10 mg/mL in 50% DMSO per well, overnight 37 °C, --- = no zone of inhibition; for zone of inhibition at 10000 µg/mL: Escherichia coli, ATCC31218
Method: (§1) The antimicrobial activity of the final compounds was performed by reported methods.The bacterial strains, E. coli (Gram negative), S. aureus (Gram positive), and fungi, Candida albicans, were used for the study. Luria broth Agar and Sabouraud Dextrose Agar were prepared into a petri dish using 25 mL of autoclaved media; 100 μL of diluted broth of freshly prepared E. coli, S. aureus, and C. albicans were spread on Luria Broth Agar and Sabouraud Agar plates, respectively. Then, 7 wells of 50 μL capacity were punched on each plate. Samples 5–18 (10 μL of 10 mg/mL standard prepared in 50% DMSO) were placed in each plate’s well in different plate sets. All the plates were incubated for overnight at 37 °C in an incubator shaker. The inhibition zone was calculated in triplicate.

[2] = system: S. aureus (ATCC 29213); test: Antimicrobial activity, agar well zone of inhibition, S. aureus; assay type: cell-based, Staphylococcus aureus; details: 10 μL of 10 mg/mL in 50% DMSO per well, overnight 37 °C, --- = no zone of inhibition; for zone of inhibition at 10000 µg/mL: Staphylococcus aureus, ATCC29213
Method: as §1

[3] = system: C. albicans (ATCC 10231); test: Antifungal activity, agar well zone of inhibition, C. albicans; assay type: cell-based, Candida albicans; details: 10 μL of 10 mg/mL in 50% DMSO per well, overnight 37 °C, --- = no zone of inhibition; for zone of inhibition at 10000 µg/mL: Candida albicans, ATCC10231
Method: as §1

[4] = system: HCT-116; test: Antiproliferative activity, MTT assay, HCT-116; details: Homo sapiens, HCT-116, read-out: Cytotoxicity IC50 HCT-116
Excerpt: (§2) The compounds were screened on breast (MCF-7), liver (HepG2), and colorectal (HCT-116) cancer cells, obtained from American Type culture Collection (ATCC); 0.1% of DMSO was used as a vehicle control.

[5] = system: MCF-7; test: Antiproliferative activity, MTT assay, MCF-7; details: for IC50: Homo sapiens, MCF7, read-out: Cytotoxicity IC50 MCF-7; for times active relative to 5-florouracil, MCF-7: (IC50 18.74 μM)
Excerpt: as §2

[6] = system: HepG2; test: Antiproliferative activity, MTT assay, HepG2; details: for IC50: Homo sapiens, HepG2, read-out: Cytotoxicity IC50 HepG2
Excerpt: as §2

[7] = biological target: Thymidylate synthase (TS) (Homo sapiens, UniProt P04818); test: Thymidylate synthase (TS) enzymatic assay
Sequence of Thymidylate synthase (TS) (P04818 whole entry): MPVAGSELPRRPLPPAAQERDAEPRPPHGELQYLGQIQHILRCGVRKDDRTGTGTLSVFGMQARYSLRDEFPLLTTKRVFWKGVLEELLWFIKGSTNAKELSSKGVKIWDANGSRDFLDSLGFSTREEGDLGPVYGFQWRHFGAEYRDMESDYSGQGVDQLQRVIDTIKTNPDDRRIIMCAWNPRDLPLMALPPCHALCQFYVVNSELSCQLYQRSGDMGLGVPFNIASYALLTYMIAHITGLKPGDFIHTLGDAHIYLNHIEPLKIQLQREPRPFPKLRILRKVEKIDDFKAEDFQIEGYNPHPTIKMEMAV

- melting point: 58 to 60 °C
Structure (SMILES): C#CCSc1nnc(COc2cc(C)ccc2C(C)C)o1 [Compound 5, 2-((2-isopropyl-5-methylphenoxy)methyl)-5-(prop-2-ynylthio)-1,3,4-oxadiazole]
- zone of inhibition E. coli [1]: 12 ± 0.32 mm
- zone of inhibition at 10000 µg/mL [1]: 12 mm
- zone of inhibition S. aureus [2]: 9 ± 0.30 mm
- zone of inhibition at 10000 µg/mL [2]: 9 mm
- zone of inhibition C. albicans [3]: 10 ± 0.32 mm
- zone of inhibition at 10000 µg/mL [3]: 10 mm

Structure (SMILES): O=c1[nH]cc(F)c(=O)[nH]1 [Compound 5-FU, 5-fluorouracil, reference compound]
- IC50 [4]: 30.7 µM
- IC50 [5]: 18.7 µM
- IC50 [6]: 28.7 µM

- melting point: 88 to 90 °C
Structure (SMILES): Cc1ccc(C(C)C)c(OCc2nnc(SCc3cn(-c4ccccc4)nn3)o2)c1 [Compound 6, 4-((5-((2-isopropyl-5-methylphenoxy)methyl)-1,3,4-oxadiazol-2-ylthio)methyl)-1-phenyl-1H-1,2,3-triazole]
- IC50 [4]: 36.5 µM
- zone of inhibition E. coli [1]: 14 ± 0.38 mm
- zone of inhibition at 10000 µg/mL [1]: 14 mm
- IC50 [5]: 22.5 µM
- IC50 [6]: 41.6 µM
- zone of inhibition S. aureus [2]: 10 ± 0.40 mm
- zone of inhibition at 10000 µg/mL [2]: 10 mm

- IC50 [7]: 3.52 ± 1.2 µM
- melting point: 81 to 83 °C
Structure (SMILES): COc1ccccc1-n1cc(CSc2nnc(COc3cc(C)ccc3C(C)C)o2)nn1 [Compound 7, 4-((5-((2-isopropyl-5-methylphenoxy)methyl)-1,3,4-oxadiazol-2-ylthio)methyl)-1-(2-methoxyphenyl)-1H-1,2,3-triazole]
- IC50 [4]: 3.1 µM
- zone of inhibition E. coli [1]: 12 ± 0.34 mm
- zone of inhibition at 10000 µg/mL [1]: 12 mm
- IC50 [5]: 2.4 µM
- fold active relative to 5-FU, HepG2 [6]: 16 fold
- IC50 [6]: 1.8 µM
- zone of inhibition S. aureus [2]: 12 ± 0.34 mm
- zone of inhibition at 10000 µg/mL [2]: 12 mm

- IC50 [7]: 3.98 ± 1.1 µM
- melting point: 166 to 168 °C
Structure (SMILES): Cc1ccc(C(C)C)c(OCc2nnc(SCc3cn(-c4cccc(C(=O)O)c4)nn3)o2)c1 [Compound 8, 3-(4-((5-((2-isopropyl-5-methylphenoxy)methyl)-1,3,4-oxadiazol-2-ylthio)methyl)-1H-1,2,3-triazol-1-yl)benzoic acid]
- IC50 [4]: 5.8 µM
- IC50 [5]: 3.9 µM
- IC50 [6]: 5.3 µM
- zone of inhibition S. aureus [2]: 10 ± 0.40 mm
- zone of inhibition at 10000 µg/mL [2]: 10 mm

- IC50 [7]: 1.95 ± 0.9 µM
- melting point: 86 to 88 °C
Structure (SMILES): Cc1ccc(C(C)C)c(OCc2nnc(SCc3cn(-c4ccccc4O)nn3)o2)c1 [Compound 9, 2-(4-((5-((2-isopropyl-5-methylphenoxy)methyl)-1,3,4-oxadiazol-2-ylthio)methyl)-1H-1,2,3-triazol-1-yl)phenol]
- IC50 [4]: 2.6 µM
- zone of inhibition E. coli [1]: 12 ± 0.36 mm
- zone of inhibition at 10000 µg/mL [1]: 12 mm
- times active relative to 5-florouracil, MCF-7 [5]: 17 times
- IC50 [5]: 1.1 µM
- fold active relative to 5-FU, HepG2 [6]: 20 fold
- IC50 [6]: 1.4 µM
- zone of inhibition S. aureus [2]: 12 ± 0.34 mm
- zone of inhibition at 10000 µg/mL [2]: 12 mm
- zone of inhibition C. albicans [3]: 10 ± 0.032 mm
- zone of inhibition at 10000 µg/mL [3]: 10 mm

- IC50 [7]: 2.18 ± 1.7 µM
- melting point: 90 to 92 °C
Structure (SMILES): Cc1ccc(C(C)C)c(OCc2nnc(SCc3cn(-c4ccccc4Cl)nn3)o2)c1 [Compound 10, 4-((5-((2-isopropyl-5-methylphenoxy)methyl)-1,3,4-oxadiazol-2-ylthio)methyl)-1-(2-chlorophenyl)-1H-1,2,3-triazole]
- IC50 [4]: 3.8 µM
- times active relative to 5-florouracil, MCF-7 [5]: 15 times
- IC50 [5]: 1.3 µM
- IC50 [6]: 2.5 µM

- IC50 [7]: 4.24 ± 0.8 µM
- melting point: 92 to 94 °C
Structure (SMILES): Cc1ccc(C(C)C)c(OCc2nnc(SCc3cn(-c4cccc(Cl)c4)nn3)o2)c1 [Compound 11, 4-((5-((2-isopropyl-5-methylphenoxy)methyl)-1,3,4-oxadiazol-2-ylthio)methyl)-1-(3-chlorophenyl)-1H-1,2,3-triazole]
- IC50 [4]: 16.3 µM
- IC50 [5]: 4.9 µM
- IC50 [6]: 18.6 µM

- melting point: 84 to 86 °C
Structure (SMILES): Cc1ccc(C(C)C)c(OCc2nnc(SCc3cn(-c4ccc(Cl)cc4Cl)nn3)o2)c1 [Compound 12, 4-((5-((2-isopropyl-5-methylphenoxy)methyl)-1,3,4-oxadiazol-2-ylthio)methyl)-1-(2,4-dichlorophenyl)-1H-1,2,3-triazole]
- IC50 [4]: 47.3 µM
- zone of inhibition E. coli [1]: 10 ± 0.38 mm
- zone of inhibition at 10000 µg/mL [1]: 10 mm
- IC50 [5]: 59.4 µM
- IC50 [6]: 40.6 µM
- zone of inhibition C. albicans [3]: 12 ± 0.036 mm
- zone of inhibition at 10000 µg/mL [3]: 12 mm

- melting point: 114 to 116 °C
Structure (SMILES): Cc1ccc(C(C)C)c(OCc2nnc(SCc3cn(-c4ccc(Br)cc4)nn3)o2)c1 [Compound 13, 4-((5-((2-isopropyl-5-methylphenoxy)methyl)-1,3,4-oxadiazol-2-ylthio)methyl)-1-(4-bromophenyl)-1H-1,2,3-triazole]
- IC50 [4]: 78.7 µM
- zone of inhibition E. coli [1]: 11 ± 0.34 mm
- zone of inhibition at 10000 µg/mL [1]: 11 mm
- IC50 [5]: 65.3 µM
- IC50 [6]: 69.4 µM

- melting point: 72 to 74 °C
Structure (SMILES): Cc1ccc(C(C)C)c(OCc2nnc(SCc3cn(-c4cccc(Br)c4)nn3)o2)c1 [Compound 14, 4-((5-((2-isopropyl-5-methylphenoxy)methyl)-1,3,4-oxadiazol-2-ylthio)methyl)-1-(3-bromophenyl)-1H-1,2,3-triazole]
- IC50 [4]: 32.8 µM
- zone of inhibition E. coli [1]: 9 ± 0.32 mm
- zone of inhibition at 10000 µg/mL [1]: 9 mm
- IC50 [5]: 41.8 µM
- IC50 [6]: 23.7 µM

- melting point: 118 to 120 °C
Structure (SMILES): Cc1ccc(C(C)C)c(OCc2nnc(SCc3cn(-c4ccc(F)cc4)nn3)o2)c1 [Compound 15, 4-((5-((2-isopropyl-5-methylphenoxy)methyl)-1,3,4-oxadiazol-2-ylthio)methyl)-1-(4-florophenyl)-1H-1,2,3-triazole]
- IC50 [4]: 31.4 µM
- IC50 [5]: 23.2 µM
- IC50 [6]: 49.2 µM

- melting point: 130 to 132 °C
Structure (SMILES): Cc1ccc(C(C)C)c(OCc2nnc(SCc3cn(-c4ccc(F)cc4F)nn3)o2)c1 [Compound 16, 4-((5-((2-isopropyl-5-methylphenoxy)methyl)-1,3,4-oxadiazol-2-ylthio)methyl)-1-(2,4-diflorophenyl)-1H-1,2,3-triazole]
- IC50 [4]: 56.2 µM
- zone of inhibition E. coli [1]: 14 ± 0.34 mm
- zone of inhibition at 10000 µg/mL [1]: 14 mm
- IC50 [5]: 34.5 µM
- IC50 [6]: 58.3 µM
- zone of inhibition S. aureus [2]: 15±0.38 mm
- zone of inhibition at 10000 µg/mL [2]: 15 mm

- melting point: 124 to 126 °C
Structure (SMILES): Cc1ccc(C(C)C)c(OCc2nnc(SCc3cn(C(=O)Nc4ccccc4C)nn3)o2)c1 [Compound 17, 4-((5-((2-isopropyl-5-methylphenoxy)methyl)-1,3,4-oxadiazol-2-ylthio)methyl)-N-o-tolyl-1H-1,2,3-triazole-1-carboxamide]
- IC50 [4]: 17.3 µM
- zone of inhibition E. coli [1]: 12 ± 0.32 mm
- zone of inhibition at 10000 µg/mL [1]: 12 mm
- IC50 [5]: 9.39 µM
- IC50 [6]: 39.1 µM
- zone of inhibition S. aureus [2]: 12 ± 0.34 mm
- zone of inhibition at 10000 µg/mL [2]: 12 mm

- melting point: 98 to 100 °C
Structure (SMILES): Cc1ccc(C(C)C)c(OCc2nnc(S(=O)(=O)Cc3cn(-c4cccc(Br)c4)nn3)o2)c1 [Compound 18, 4-((5-((2-isopropyl-5-methylphenoxy)methyl)-1,3,4-oxadiazol-2-ylsulfonyl)methyl)-1-(3-bromophenyl)-1H-1,2,3-triazole]
- IC50 [4]: 118 µM
- IC50 [5]: 98.2 µM
- IC50 [6]: 95.7 µM

Structure (SMILES): COc1cccc2c1C(=O)c1c(O)c3c(c(O)c1C2=O)C[C@@](O)(C(=O)CO)C[C@@H]3O[C@H]1C[C@H](N)[C@H](O)[C@H](C)O1 [Dox, doxorubicin, reference compound]
- IC50 [4]: 2.5 µM
- IC50 [5]: 1.2 µM
- IC50 [6]: 1.8 µM

Structure (SMILES): OC(Cn1cncn1)(Cn1cncn1)c1ccc(F)cc1F [Fluconazole, reference compound]
- zone of inhibition at 10000 µg/mL [3]: 16 ± 0.6 mm

Structure (SMILES): CO[C@@H]1[C@@H](OC(N)=O)[C@@H](O)[C@H](Oc2ccc3c(O)c(NC(=O)c4ccc(O)c(CC=C(C)C)c4)c(=O)oc3c2C)OC1(C)C [Novobiocin, reference compound]
- zone of inhibition at 10000 µg/mL [2]: 10 ± 0.24 mm

- IC50 [7]: 7.26 ± 1.1 µM
Structure (SMILES): Nc1nc2[nH]cc(CCc3ccc(C(=O)N[C@@H](CCC(=O)O)C(=O)O)cc3)c2c(=O)[nH]1 [Pemetrexed, reference compound]
